Converted amounts (≈) assume the structure as drawn.
Columns and labels:
[1] = Drug dissolution test, rotating basket method, 0.2% SDS solution; assay type: physicochemical; details: 500 ml, 100 rpm
Description: Drug dissolution test was performed on the solid dispersion (rotating basket method, 0.2% SDS solution, 500 ml, 100 rpm). […] Under the same conditions, the drug dissolution of API (compound prepared in example 1) in 10 min, 30 min and 60 min were 7%, 13% and 22% respectively.

[2] = Pharmacokinetic test in mice (Effect Example 3); assay type: in vivo; details: mouse, plasma, po, male mice, single gavage
Description: Four groups of male mice were randomly divided into two groups: test article 1 (solid dispersion prepared in Example 7 and suspension prepared with reverse osmosis water as solvent), the dosages are 25 mg/kg and 100 mg/kg respectively; test article 2 (API prepared in example 1 and suspension prepared with aqueous solution containing 0.2% HPMC-E5), the dosages are 25 mg/kg and 100 mg/kg, respectively. The animals in each group were administered by single gavage.
All animals collected blood samples and separated plasma at 0.087 h, 0.25 h, 0.5 h, 1 h, 2 h, 4 h, 6 h, 8 h and 24 h after administration. All plasma samples were analyzed by LC-MS/Ms. the lower limit of quantification of the method was 10 ng/ml. The plasma concentration data were analyzed by non-compartmental model method (NCA) of metabolic kinetic data analysis software winnonlin8.0.0.3176, and the pharmacokinetic parameters were calculated to evaluate the kinetic characteristics of API in animals after administration.

[3] = Equilibrium solubility test; assay type: physicochemical; details: 37 °C, thermodynamic from solid
Description: After 2 and 24 hours of high-speed centrifugation, the supernatant was taken, and the concentration of API in the supernatant was determined by high-performance liquid chromatography.

[4] = Solubility in aqueous medium pH 1-7; assay type: physicochemical; details: aqueous buffer, thermodynamic from solid, 37° C. for 24 hours, acidic or neutral medium pH 1-7
Description: The compound of formula (I) is usually in crystalline form and has very low solubility. […] Even after high humidity (60%) and long-term (12 months) storage, the compound of formula (1) in the solid dispersion of the invention will not be transformed or degraded.

drug dissolution ([1]; 10 min) [%]	drug dissolution ([1]; 30 min) [%]	drug dissolution ([1]; 60 min) [%]	AUC(0-inf) ([2]; 25 mg/kg) [ng·h/mL]	AUC(0-t) ([2]; 25 mg/kg) [ng·h/mL]	Cmax ([2]; 25 mg/kg) [ng/mL]	Tmax ([2]; 25 mg/kg) [h]	half-life ([2]; 25 mg/kg) [h]	AUC(0-inf) ([2]; 100 mg/kg) [ng·h/mL]	AUC(0-t) ([2]; 100 mg/kg) [ng·h/mL]	Cmax ([2]; 100 mg/kg) [ng/mL]	Tmax ([2]; 100 mg/kg) [h]	half-life ([2]; 100 mg/kg) [h]	solubility at 2 h ([3]; FaSSIF) [µg/mL]	solubility at 24 h ([3]; FaSSIF) [µg/mL]	solubility at 2 h ([3]; FeSSIF) [µg/mL]	solubility at 24 h ([3]; FeSSIF) [µg/mL]	solubility at 24 h [4] [µg/mL]	SMILES
7	13	22	637	384	82.2	3.33	7.41	1120	1100	105	1	3.7	1.3 (≈ 1.47 µM)	0.6 (≈ 0.68 µM)	2.5 (≈ 2.83 µM)	0.5 (≈ 0.567 µM)		O=C(NS(=O)(=O)c1ccc(NC[C@H]2COCCO2)c([N+](=O)[O-])c1)c1ccc(N2CCN(CC3=C(c4ccc(Cl)cc4)CC4(CCC4)CC3)CC2)cc1Oc1cnc2[nH]ccc2c1 [API, 4-{4-{[6-(4-Chloro-phenyl)-spiro[3,5]nonane-6-ene-7-yl]methyl}-piperazine-1-yl}-N-{{3-nitro-4-[((2S)-[1,4]dioxane-2-ylmethyl)-amino]phenyl}sulfonyl}-2-(1H-pyrrolo[2,3-b]pyridin-5-yloxy)-benzamide]
																	0.3 to 0.6	O=C(NS(=O)(=O)c1ccc(NC[C@H]2COCCO2)c([N+](=O)[O-])c1)c1ccc(N2CCN(CC3=C(c4ccc(Cl)cc4)CC4(CCC4)CC3)CC2)cc1Oc1cnc2[nH]ccc2c1 [compound of formula (I), 4-{4-{[6-(4-Chloro-phenyl)-spiro[3,5]nonane-6-ene-7-yl]methyl}-piperazine-1-yl}-N-{{3-nitro-4-[((2S)-[1,4]dioxane-2-ylmethyl)-amino]phenyl}sulfonyl}-2-(1H-pyrrolo[2,3-b]pyridin-5-yloxy)-benzamide]
